Values quoted from earlier work, collected in patent publication US8808745B2 (Egalet Ltd., priority 2001, dated 2014).

Conditions: single dose of 10 mg oral morphine, plain tablet composition

CN1CC[C@]23c4c5ccc(O)c4O[C@H]2[C@@H](O)C=C[C@H]3[C@H]1C5 [morphine]
average duration of action: 4 to 5 h
